Assay results taken from ChEMBL document CHEMBL4715770, “Inhibition of Low Molecular Weight Protein Tyrosine Phosphatase by an Induced-Fit Mechanism” (J Med Chem, 2016).

Legend:
[1] = target: Receptor-type tyrosine-protein phosphatase alpha (Homo sapiens, UniProt P18433); test: Inhibition of His-tagged PTPalpha (unknown origin) expressed in Escherichia coli BL21 cells using para-nitrophenyl phosphate as substrate incubated for 5 to 10 mins by microplate reader based spectrophotometric analysis
[2] = target: T1, Dual specificity protein phosphatase 6 (Homo sapiens, UniProt Q16828); test: Inhibition of His-tagged MKP3 (unknown origin) expressed in Escherichia coli BL21 cells using para-nitrophenyl phosphate as substrate incubated for 5 to 10 mins by microplate reader based spectrophotometric analysis
T1 sequence (Q16828 whole entry): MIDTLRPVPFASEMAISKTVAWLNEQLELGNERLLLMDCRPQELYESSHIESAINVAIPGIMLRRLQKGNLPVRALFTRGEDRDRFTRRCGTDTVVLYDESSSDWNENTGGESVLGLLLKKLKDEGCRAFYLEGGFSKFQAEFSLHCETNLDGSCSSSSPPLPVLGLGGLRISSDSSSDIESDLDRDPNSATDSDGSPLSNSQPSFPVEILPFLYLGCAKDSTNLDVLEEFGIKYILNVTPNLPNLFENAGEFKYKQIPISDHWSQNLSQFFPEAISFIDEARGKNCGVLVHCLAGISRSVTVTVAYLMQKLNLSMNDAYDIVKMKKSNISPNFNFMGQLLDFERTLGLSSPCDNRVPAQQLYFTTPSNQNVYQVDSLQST

[3] = target: Receptor-type tyrosine-protein phosphatase beta (Homo sapiens, UniProt P23467); test: Inhibition of His-tagged PTPbeta (unknown origin) expressed in Escherichia coli BL21 cells using para-nitrophenyl phosphate as substrate incubated for 5 to 10 mins by microplate reader based spectrophotometric analysis
Chain of Receptor-type tyrosine-protein phosphatase beta (P23467 whole entry): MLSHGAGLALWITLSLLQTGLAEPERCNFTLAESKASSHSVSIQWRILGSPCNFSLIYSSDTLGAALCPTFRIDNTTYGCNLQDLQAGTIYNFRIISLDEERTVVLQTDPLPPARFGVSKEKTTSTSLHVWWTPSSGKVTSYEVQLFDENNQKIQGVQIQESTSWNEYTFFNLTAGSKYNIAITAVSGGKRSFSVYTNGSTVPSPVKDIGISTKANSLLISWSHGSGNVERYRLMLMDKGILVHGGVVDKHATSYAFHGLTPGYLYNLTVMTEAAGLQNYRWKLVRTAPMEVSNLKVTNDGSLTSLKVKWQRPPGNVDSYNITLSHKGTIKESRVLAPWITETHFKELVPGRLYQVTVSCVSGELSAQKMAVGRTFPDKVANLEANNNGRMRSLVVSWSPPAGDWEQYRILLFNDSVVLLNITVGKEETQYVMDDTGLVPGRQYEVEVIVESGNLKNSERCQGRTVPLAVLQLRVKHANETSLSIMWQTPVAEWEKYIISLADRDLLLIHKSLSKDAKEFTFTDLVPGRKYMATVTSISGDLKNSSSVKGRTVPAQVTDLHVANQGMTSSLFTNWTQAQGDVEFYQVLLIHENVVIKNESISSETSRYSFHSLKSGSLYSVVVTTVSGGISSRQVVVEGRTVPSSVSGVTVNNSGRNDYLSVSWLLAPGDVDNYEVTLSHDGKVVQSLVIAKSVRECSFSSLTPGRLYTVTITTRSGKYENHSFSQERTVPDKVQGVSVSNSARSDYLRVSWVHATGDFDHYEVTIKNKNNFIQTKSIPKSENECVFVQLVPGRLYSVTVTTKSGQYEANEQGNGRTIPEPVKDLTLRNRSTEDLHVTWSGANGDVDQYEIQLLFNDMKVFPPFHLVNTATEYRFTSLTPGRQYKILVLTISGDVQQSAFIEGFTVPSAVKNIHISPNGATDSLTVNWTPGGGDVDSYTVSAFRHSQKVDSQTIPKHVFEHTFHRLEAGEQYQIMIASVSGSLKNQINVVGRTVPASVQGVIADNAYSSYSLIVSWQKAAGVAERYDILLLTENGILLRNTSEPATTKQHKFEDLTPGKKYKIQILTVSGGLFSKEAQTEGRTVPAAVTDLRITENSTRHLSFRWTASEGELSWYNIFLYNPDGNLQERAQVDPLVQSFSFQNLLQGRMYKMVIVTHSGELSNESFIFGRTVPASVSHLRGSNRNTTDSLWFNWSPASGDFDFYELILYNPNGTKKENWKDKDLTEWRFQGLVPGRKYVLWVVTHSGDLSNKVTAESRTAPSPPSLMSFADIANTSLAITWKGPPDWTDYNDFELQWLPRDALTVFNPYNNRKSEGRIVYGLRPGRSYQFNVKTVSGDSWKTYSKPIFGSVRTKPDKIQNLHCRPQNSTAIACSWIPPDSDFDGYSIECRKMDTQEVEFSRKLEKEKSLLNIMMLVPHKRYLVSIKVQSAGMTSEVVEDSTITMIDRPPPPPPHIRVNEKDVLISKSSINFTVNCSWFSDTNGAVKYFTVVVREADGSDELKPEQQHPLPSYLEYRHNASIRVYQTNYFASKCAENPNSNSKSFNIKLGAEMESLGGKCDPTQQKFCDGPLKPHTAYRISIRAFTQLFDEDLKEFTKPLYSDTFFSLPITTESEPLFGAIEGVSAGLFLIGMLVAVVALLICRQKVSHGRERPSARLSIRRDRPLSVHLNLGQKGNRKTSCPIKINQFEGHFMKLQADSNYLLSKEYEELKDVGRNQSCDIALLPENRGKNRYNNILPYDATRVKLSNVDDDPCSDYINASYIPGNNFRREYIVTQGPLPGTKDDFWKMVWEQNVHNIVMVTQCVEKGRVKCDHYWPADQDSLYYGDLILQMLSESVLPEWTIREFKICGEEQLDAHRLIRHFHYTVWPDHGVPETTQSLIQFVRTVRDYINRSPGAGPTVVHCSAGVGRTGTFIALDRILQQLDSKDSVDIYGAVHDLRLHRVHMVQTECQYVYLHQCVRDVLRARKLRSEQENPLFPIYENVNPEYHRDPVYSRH

[4] = target: Tyrosine-protein phosphatase non-receptor type 6 (Homo sapiens, UniProt P29350); test: Inhibition of His-tagged SHP1 (unknown origin) expressed in Escherichia coli BL21 cells using para-nitrophenyl phosphate as substrate incubated for 5 to 10 mins by microplate reader based spectrophotometric analysis
Chain of Tyrosine-protein phosphatase non-receptor type 6 (P29350 whole entry): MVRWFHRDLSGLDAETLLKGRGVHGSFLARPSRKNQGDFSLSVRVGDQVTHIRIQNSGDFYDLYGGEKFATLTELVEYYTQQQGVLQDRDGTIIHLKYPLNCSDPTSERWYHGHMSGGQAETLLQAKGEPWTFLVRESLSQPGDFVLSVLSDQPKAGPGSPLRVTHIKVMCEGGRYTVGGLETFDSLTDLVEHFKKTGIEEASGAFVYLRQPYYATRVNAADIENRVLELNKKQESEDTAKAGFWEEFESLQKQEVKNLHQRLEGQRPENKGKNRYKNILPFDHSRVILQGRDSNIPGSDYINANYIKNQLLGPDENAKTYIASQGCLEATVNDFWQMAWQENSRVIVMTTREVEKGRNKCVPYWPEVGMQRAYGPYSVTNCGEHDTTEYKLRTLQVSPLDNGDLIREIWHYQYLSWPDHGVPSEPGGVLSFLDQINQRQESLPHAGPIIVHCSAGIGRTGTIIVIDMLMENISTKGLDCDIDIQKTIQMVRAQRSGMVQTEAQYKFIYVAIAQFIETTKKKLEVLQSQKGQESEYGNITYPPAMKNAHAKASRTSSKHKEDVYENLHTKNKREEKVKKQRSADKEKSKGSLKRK

[5] = target: Receptor-type tyrosine-protein phosphatase mu (Homo sapiens, UniProt P28827); test: Inhibition of His-tagged PTPmu (unknown origin) expressed in Escherichia coli BL21 cells using para-nitrophenyl phosphate as substrate incubated for 5 to 10 mins by microplate reader based spectrophotometric analysis
Chain of Receptor-type tyrosine-protein phosphatase mu (P28827 whole entry): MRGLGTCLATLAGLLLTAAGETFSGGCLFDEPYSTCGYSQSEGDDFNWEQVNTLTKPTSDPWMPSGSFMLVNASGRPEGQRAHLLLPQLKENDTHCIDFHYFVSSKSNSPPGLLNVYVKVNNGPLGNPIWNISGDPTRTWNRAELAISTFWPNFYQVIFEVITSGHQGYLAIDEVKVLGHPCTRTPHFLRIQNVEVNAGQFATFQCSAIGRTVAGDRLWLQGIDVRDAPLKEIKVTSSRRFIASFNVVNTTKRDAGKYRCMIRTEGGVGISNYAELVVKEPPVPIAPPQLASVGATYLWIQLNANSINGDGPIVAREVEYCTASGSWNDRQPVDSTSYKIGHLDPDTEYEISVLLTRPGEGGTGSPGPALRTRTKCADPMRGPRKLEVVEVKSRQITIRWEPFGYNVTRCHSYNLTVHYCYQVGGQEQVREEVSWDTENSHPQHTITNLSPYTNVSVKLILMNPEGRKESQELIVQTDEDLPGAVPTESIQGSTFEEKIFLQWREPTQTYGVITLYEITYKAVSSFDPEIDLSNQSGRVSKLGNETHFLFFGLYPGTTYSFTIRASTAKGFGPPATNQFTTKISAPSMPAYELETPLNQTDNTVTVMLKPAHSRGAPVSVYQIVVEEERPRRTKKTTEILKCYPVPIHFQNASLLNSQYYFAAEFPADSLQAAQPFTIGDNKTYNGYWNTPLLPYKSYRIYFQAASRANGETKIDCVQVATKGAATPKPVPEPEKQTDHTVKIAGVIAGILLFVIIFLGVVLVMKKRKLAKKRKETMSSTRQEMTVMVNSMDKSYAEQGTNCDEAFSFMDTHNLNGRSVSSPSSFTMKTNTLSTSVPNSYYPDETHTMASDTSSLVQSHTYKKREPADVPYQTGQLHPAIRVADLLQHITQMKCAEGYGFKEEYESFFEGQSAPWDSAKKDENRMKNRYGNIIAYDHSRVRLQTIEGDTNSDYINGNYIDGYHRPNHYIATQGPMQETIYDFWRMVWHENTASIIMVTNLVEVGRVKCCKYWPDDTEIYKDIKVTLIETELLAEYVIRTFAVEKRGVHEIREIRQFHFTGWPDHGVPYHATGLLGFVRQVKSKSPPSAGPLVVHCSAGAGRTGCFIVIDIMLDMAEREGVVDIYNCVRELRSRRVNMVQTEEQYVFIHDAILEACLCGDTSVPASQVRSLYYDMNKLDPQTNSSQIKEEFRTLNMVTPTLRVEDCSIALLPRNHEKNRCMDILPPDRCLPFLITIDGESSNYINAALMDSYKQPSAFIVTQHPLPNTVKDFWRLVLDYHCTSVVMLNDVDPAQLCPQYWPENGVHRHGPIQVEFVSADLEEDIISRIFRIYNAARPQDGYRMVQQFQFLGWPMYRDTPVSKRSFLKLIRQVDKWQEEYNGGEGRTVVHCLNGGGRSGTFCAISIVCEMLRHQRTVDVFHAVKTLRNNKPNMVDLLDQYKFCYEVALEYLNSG

[6] = target: Receptor-type tyrosine-protein phosphatase epsilon (Homo sapiens, UniProt P23469); test: Inhibition of His-tagged PTPepsilon (unknown origin) expressed in Escherichia coli BL21 cells using para-nitrophenyl phosphate as substrate incubated for 5 to 10 mins by microplate reader based spectrophotometric analysis
[7] = target: T2, Tyrosine-protein phosphatase non-receptor type 12 (Homo sapiens, UniProt Q05209); test: Inhibition of His-tagged PTP-PEST (unknown origin) expressed in Escherichia coli BL21 cells using para-nitrophenyl phosphate as substrate incubated for 5 to 10 mins by microplate reader based spectrophotometric analysis
T2 sequence (Q05209 whole entry): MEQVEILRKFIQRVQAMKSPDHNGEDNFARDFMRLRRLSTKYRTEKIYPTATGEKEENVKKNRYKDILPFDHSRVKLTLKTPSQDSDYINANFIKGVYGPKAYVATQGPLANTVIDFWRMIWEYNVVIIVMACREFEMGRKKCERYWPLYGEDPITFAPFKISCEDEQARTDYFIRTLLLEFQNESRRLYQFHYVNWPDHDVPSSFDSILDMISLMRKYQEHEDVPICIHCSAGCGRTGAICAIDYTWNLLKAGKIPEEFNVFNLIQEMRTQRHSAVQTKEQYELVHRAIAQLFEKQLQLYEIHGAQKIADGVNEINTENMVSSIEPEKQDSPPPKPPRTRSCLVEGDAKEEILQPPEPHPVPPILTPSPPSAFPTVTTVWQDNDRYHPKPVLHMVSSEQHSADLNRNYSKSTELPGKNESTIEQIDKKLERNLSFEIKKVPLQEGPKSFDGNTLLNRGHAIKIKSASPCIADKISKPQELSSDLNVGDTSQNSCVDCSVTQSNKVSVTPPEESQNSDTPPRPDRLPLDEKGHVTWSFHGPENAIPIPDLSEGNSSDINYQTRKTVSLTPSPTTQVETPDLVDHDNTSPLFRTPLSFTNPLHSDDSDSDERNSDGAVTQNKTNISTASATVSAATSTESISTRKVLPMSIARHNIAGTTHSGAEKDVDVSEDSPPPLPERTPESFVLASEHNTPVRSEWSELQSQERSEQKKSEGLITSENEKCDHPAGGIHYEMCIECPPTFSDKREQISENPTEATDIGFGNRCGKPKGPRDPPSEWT

[8] = target: Tyrosine-protein phosphatase non-receptor type 13 (Homo sapiens, UniProt Q12923); test: Inhibition of His-tagged FAP1 (unknown origin) expressed in Escherichia coli BL21 cells using para-nitrophenyl phosphate as substrate incubated for 5 to 10 mins by microplate reader based spectrophotometric analysis
[9] = target: T3, Tyrosine-protein phosphatase non-receptor type 22 (Homo sapiens, UniProt Q9Y2R2); test: Inhibition of His-tagged LYP (unknown origin) expressed in Escherichia coli BL21 cells using para-nitrophenyl phosphate as substrate incubated for 5 to 10 mins by microplate reader based spectrophotometric analysis
T3 sequence (Q9Y2R2 whole entry): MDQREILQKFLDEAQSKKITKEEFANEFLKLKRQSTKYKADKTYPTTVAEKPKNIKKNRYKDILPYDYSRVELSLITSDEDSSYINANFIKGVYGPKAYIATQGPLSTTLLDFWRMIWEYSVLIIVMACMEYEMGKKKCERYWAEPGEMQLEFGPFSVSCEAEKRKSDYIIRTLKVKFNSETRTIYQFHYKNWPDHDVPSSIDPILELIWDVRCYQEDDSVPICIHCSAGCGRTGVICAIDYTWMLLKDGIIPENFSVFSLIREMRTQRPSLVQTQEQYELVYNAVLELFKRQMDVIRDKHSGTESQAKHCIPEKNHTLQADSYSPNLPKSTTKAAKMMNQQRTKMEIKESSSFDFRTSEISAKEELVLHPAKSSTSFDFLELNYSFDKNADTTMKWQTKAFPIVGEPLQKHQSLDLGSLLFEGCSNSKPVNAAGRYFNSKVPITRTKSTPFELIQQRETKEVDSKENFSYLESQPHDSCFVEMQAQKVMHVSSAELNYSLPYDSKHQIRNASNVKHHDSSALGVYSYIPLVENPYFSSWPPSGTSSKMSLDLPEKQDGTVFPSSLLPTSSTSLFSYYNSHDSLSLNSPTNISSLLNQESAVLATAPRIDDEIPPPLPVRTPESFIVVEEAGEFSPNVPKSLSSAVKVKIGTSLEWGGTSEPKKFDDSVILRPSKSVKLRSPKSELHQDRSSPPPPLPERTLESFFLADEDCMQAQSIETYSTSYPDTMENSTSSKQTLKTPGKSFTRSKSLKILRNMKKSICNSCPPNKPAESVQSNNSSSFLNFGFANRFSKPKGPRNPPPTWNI

Chain of Receptor-type tyrosine-protein phosphatase alpha (P18433 whole entry): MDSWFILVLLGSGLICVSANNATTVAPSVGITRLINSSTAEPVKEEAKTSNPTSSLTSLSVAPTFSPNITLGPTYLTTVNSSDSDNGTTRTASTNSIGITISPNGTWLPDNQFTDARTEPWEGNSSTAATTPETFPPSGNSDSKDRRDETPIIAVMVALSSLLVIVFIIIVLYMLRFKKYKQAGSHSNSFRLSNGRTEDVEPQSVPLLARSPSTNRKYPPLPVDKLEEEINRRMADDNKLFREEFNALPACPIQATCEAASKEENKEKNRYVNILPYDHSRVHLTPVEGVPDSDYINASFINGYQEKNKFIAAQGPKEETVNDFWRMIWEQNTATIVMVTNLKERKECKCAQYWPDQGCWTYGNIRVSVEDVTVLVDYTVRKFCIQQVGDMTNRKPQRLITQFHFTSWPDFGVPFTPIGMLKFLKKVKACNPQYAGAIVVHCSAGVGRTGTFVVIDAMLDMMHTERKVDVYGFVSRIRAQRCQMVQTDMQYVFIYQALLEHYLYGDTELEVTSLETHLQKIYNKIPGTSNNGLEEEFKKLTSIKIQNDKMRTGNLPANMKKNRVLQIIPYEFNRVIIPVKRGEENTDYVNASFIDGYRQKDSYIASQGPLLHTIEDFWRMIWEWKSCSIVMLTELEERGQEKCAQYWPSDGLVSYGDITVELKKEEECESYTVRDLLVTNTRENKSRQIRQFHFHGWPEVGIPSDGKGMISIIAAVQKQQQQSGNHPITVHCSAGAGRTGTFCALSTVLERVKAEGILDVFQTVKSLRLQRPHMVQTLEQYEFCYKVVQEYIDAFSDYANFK

`O=C(Nc1ccc(OCc2ccccc2)c(Cl)c1)C(c1ccccc1)S(=O)(=O)O` (stereo unspecified) gave an IC50 [1] of over 200 µM, an IC50 [2] of over 200 µM and an IC50 [3] of over 200 µM. It also gave an IC50 [4] of over 200 µM, an IC50 [5] of over 200 µM and an IC50 [6] of over 200 µM.

`O=C(Nc1nc2ccc([N+](=O)[O-])cc2s1)C(c1ccccc1)S(=O)(=O)O` (stereo unspecified) was tested, and the IC50 [7] was over 100 µM, the IC50 [1] was over 100 µM and the IC50 [2] was over 100 µM. It also gave an IC50 [3] of over 100 µM, an IC50 [4] of over 100 µM and an IC50 [5] of over 100 µM. For the same molecule, the IC50 [6] was over 100 µM, the IC50 [8] was over 100 µM and the IC50 [9] was over 100 µM.

Work on `O=C(Nc1cc(C(F)(F)F)cc(C(F)(F)F)c1)C(c1ccccc1)S(=O)(=O)O` (stereo unspecified) yielded an IC50 [7] of 66.9 µM, an IC50 [1] of over 200 µM and an IC50 [2] of over 200 µM. It also gave an IC50 [3] of over 200 µM, an IC50 [4] of over 200 µM and an IC50 [5] of over 200 µM. The IC50 [6] was over 200 µM, the IC50 [8] was 76 µM and the IC50 [9] was over 200 µM.

Work on `O=C(Nc1ccc(-n2ccnc2)cc1)C(c1ccccc1)S(=O)(=O)O` (stereo unspecified) yielded an IC50 [7] of over 100 µM, an IC50 [1] of over 100 µM and an IC50 [2] of over 100 µM. For the same molecule, the IC50 [3] was over 100 µM, the IC50 [4] was over 100 µM and the IC50 [5] was over 100 µM. It also gave an IC50 [6] of over 100 µM, an IC50 [8] of over 100 µM and an IC50 [9] of over 100 µM.

Molecule `Cc1c(Br)cc(NC(=O)C(c2ccccc2)S(=O)(=O)O)cc1Br` (stereo unspecified) has an IC50 [1] of over 200 µM, an IC50 [2] of over 200 µM and an IC50 [3] of over 200 µM. For the same molecule, the IC50 [4] was over 200 µM, the IC50 [5] was over 200 µM and the IC50 [6] was over 200 µM. The IC50 [8] was over 200 µM and the IC50 [9] was over 200 µM.
